Reference: patent US20060014723A1, “Anti-parasitic uses of borinic acid complexes” (priority 2004, published 2006)
In brackets after ≈: the same amount, converted by molar mass.

How the values were obtained:
[1] = tested on: P. falciparum K1; assay: Malaria in vitro screening model (3H-hypoxanthine incorporation); assay type: cell-based, Plasmodium falciparum; conditions: for IC50: Plasmodium falciparum, K1
Description: […] P. falciparum K1 is used in this study. K1 (a clone originating from Thailand) is resistant to chloroquine and pyrimethamine. The strains are maintained in RPMI 1640 medium with 0.36 mM hypoxanthine, supplemented with 25 mM N 2-hydroxyethyipiperazine-N-2-ethane-sulphonic acid (HEPES), 25 mM NaHCO3, neomycin (100 U/mL) and 5 g/L of ALBUMAX® II (lipid-rich bovine serum albumin, GIBCO, Grand Island, N.Y., USA), together with 5% washed human A+ erythrocytes. All cultures and assays are conducted at 37° C. under an atmosphere of 4% CO2, 3% O2 and 93% N2. Cultures are kept in incubation chambers filled with the gas mixture. Subcultures are diluted to a parasitemia of between 0.1 and 0.5% and the medium is changed daily.
Antimalarial activity is assessed using an adaptation of the procedures described by Desjardins et al. (Antimicrob. Agents Chemother. 16:710-718, 1979), and Matile and Pink (In: Lefkovits, I. and Pernis, B. (Eds.), Immunological Methods Vol. IV, Academic Press, San Diego, pp. 221-234, 1990).
Stock drug solutions are prepared in 100% dimethylsulfoxide (DMSO) at 10 mg/mL, and heated or sonicated if necessary to dissolve the sample. After use, the stocks are kept at −20° C. For the assays, the compound is further diluted in serum-free culture medium and finally to the appropriate concentration in complete medium without hypoxanthine.
Assays are performed in sterile 96-well microtiter plates, each well containing 200 μl of parasite culture (0.15% parasitemia, 2.5% hematocrit) with or without serial drug solutions. Seven 2-fold dilutions are used, covering a range from […] to 0.078 μg/mL. For active compounds the highest concentration is lowered (e.g., to […]); for plant extracts the highest concentration is increased to 50 μg/mL. […] After 48 hours of incubation at 37° C., 0.5 μCi ^3H-hypoxanthine is added to each well. Cultures are incubated for a further 24 h before being harvested onto glass-fiber filters and washed with distilled water. The radioactivity is counted using a Betaplate liquid scintillation counter (Wallac, Zurich, Switzerland). The results are recorded as counts per minute per well at each drug concentration and expressed as percentage of the untreated controls. IC50 values are calculated from the sigmoidal inhibition curves using Microsoft EXCEL.

[2] = tested on: T. b. rhodesiense STIB 900; assay: African sleeping sickness in vitro screening model (Alamar Blue); assay type: cell-based, Trypanosoma brucei rhodesiense; conditions: for IC50: Trypanosoma brucei
Description: Bloodstream from trypomastigotes of the strains (a) and (c) are maintained in Minimal Essential Medium (MEM) with Earle's salts supplemented according to Baltz, et al., (EMBO J. 4:1273-1277, 1985) with 25 mM N-2-hydroxyethylpiperazine-N′-2-ethane-sulphonic acid (HEPES), 1 g/L additional glucose, 1% MEM non-essential amino acids (100×), 0.2 mM 2-mercaptoethanol, 2 mM sodium pyruvate, 0.1 mM hypoxanthine and 15% heat-inactivated horse serum.
All cultures and assays are conducted at 37° C. under an atmosphere of 5% CO2 in air.
After use the stocks are kept at −20° C. For the assays, the compound is further diluted in serum-free culture medium and finally to the appropriate concentration in complete medium without hypoxanthine.
Assays are performed in 96-well microtiter plates, each well containing 100 μL of culture medium with 8×10^3 bloodstream forms with or without a serial drug dilution. The highest concentration for the test compounds is 90 μg/mL. Seven 3-fold drug dilutions are used, covering a range from 90 μg/mL to 0.123 μg/mL. Each drug is tested in duplicate. Active compounds are tested twice for confirmation. The final result is the mean of the four individual IC50 values. After 72 hrs of incubation, the plates are inspected under an inverted microscope to assure growth of the controls and sterile conditions.
(§1) Ten μL of Alamar Blue (12.5 mg resazurin dissolved in 100 mL distilled water) are now added to each well and the plates are incubated for another 2 hours. Then the plates are read with a Spectramax GEMINI XS microplate fluorometer (Molecular Devices Cooperation, Sunnyvale, Calif., USA) using an excitation wavelength of 536 nm and an emission wave length of 588 nm.
IC50 values are determined using the microplate reader software Softmax Pro (Molecular Devices Cooperation, Sunnyvale, Calif., USA).

[3] = tested on: Trypanosoma cruzi Tulahuen C2C4 strain; assay: Chagas disease in vitro screening model (beta-galactosidase strain in L-6 cells); assay type: cell-based; conditions: for IC50: Trypanosoma cruzi, TULAHUEN, L6, read-out: T. cruzi IC50
Description: Trypanosoma cruzi Tulahuen C2C4 strain, containing the β-galactosidase (Lac Z) gene (Buckner et al., Antimicrob. Agents Chemother 40:2592-2597, 1996) is used for this study.
The infective amastigote and trypomastigote stages are cultivated in L-6 cells (a rat skeletal myoblast cell line) in RPMI 1640 medium supplemented with 2 mM L-glutamine and 10% heat-inactivated fetal bovine serum in 12.5 cm^2 tissue culture flasks. Amastigotes develop intracellularly, differentiate into trypomastigotes, and leave the host cell. These trypomastigotes infect new L-6 cells and are the stages used to initiate an infection in the assay. All cultures and assays are conducted at 37° C. under an atmosphere of 5% CO2 in air.
(§2) After use the stocks are kept at −20° C. For the assays, the compound is further diluted to the appropriate concentration using complete medium.
Assays are performed in sterile 96-well microtiter plates, each well containing 100 μl medium with 2×10^3 L-6 cells. After 24 hours, […] of a trypanosome suspension containing 5×10^3 trypomastigote bloodstream forms from culture are added to the wells. Forty-eight hours later, the medium is removed from the wells and replaced by […] fresh medium, with or without a serial drug dilution. At this point the L-6 cells should be infected with amastigotes and no free trypomastigotes should be in the medium. Seven 3-fold drug dilutions are used, covering a range from 90 μg/mL to 0.123 μg/mL. Each drug is tested in duplicate. Active compounds are tested twice for confirmation. After 96 hours of incubation the plates are inspected under an inverted microscope to assure growth of the controls and sterility.
Then the substrate CPRG/Nonidet (50 μl) is added to all wells. A colour reaction will become visible within 2-6 hours and can be read photometrically at 540 nm. Data are transferred into a graphics program (e.g., EXCEL), sigmoidal inhibition curves determined and IC50 values calculated.

[4] = tested on: Leishmania donovani strain MHOM/ET1671L82; assay: Leishmaniasis in vitro screening model (axenic amastigotes, Alamar Blue); assay type: cell-based; conditions: for IC50: Leishmania donovani, read-out: L. donovani IC50
Description: The Leishmania donovani strain MHOM/ET1671L82 (obtained from Dr. S. Croft, London School of Hygiene and Tropical Medicine) is used. The strain is maintained in the Syrian Golden hamster. Amastigotes are collected from the spleen of an infected hamster. Amastigotes are grown in axenic culture at 37° C. in SM medium (Cunningham I., J. Protozoal. 24:325-329, 1977) at pH 5.4 supplemented with 10% heat-inactivated fetal bovine serum (FBS) under an atmosphere of 5% CO2 in air.
as §2
Assays are performed in 96-well flat-bottom microtiter plates (Costar, Corning Inc.), each well containing 100 μl of culture medium with 105 amastigotes from axenic culture with or without a serial drug dilution. Concentration of amastigotes is determined in a CASY cell analyzing system (Scharfe System, Reutlingen, Germany). Before the amastigotes are counted, the parasite culture is passed twice through a 22-gauge needle to break up clusters of amastigotes.
The highest concentration for the test compounds is 90 μg/mL. Seven 3-fold dilutions are used, covering a range from […]. Each drug is tested in duplicate. Active compounds are tested twice for confirmation. After 72 hours of incubation, the plates are inspected under an inverted microscope to assure growth of the controls and sterile conditions.
as §1, with “then” for “now”, “wave length” for “wavelength”
Data are analyzed using the microplate reader software Softmax Pro (Molecular Devices Cooperation, Sunnyvale, Calif., USA). Decrease of fluorescence (i.e. inhibition) is expressed as percentage of the fluorescence of control cultures and plotted against the drug concentrations. The IC50 value is calculated from the sigmoidal inhibition curve by the software program.

SMILES | IC50 [1] | IC50 [2] | IC50 [3] | IC50 [4] | P. falciparum IC50 [1] | T. b. rhodesiense IC50 [2] | T. cruzi IC50 [3] | L. donovani IC50 [4]
Cc1ccccc1B(Oc1cccc2cccnc12)c1cccc(Cl)c1 [Compound 25, (3-Chlorophenyl)(2-methylphenyl)borinic acid quinolin-8-yl ester] | 1.81 µg/mL (≈ 5.06 µM) | 0.295 µg/mL (≈ 0.825 µM) | 0.905 µg/mL (≈ 2.53 µM) | 0.41 µg/mL (≈ 1.15 µM) | – | – | – | –
COc1cc(B(Oc2cccc3cccnc23)c2cccc(F)c2)ccc1Cl [Compound 45, (4-Chloro-3-methoxyphenyl)(3-fluorophenyl)borinic acid quinolin-8-yl ester] | 1.84 µg/mL (≈ 4.7 µM) | 0.48 µg/mL (≈ 1.23 µM) | 1.15 µg/mL (≈ 2.92 µM) | 0.5 µg/mL (≈ 1.28 µM) | – | – | – | –
Clc1ccccc1C=CBOc1cccc2cccnc12 [Compound 36, (2-Chlorophenyl)vinyl borinic acid quinolin-8-yl ester] | 1.5 µg/mL (≈ 5.11 µM) | 0.18 µg/mL (≈ 0.613 µM) | 0.785 µg/mL (≈ 2.67 µM) | 0.39 µg/mL (≈ 1.33 µM) | – | – | – | –
C=CB(Oc1cccc2cccnc12)c1cccc(C2=NC(C)(C)CO2)c1 [Compound 93] | – | – | – | – | 3.034 µg/mL | 0.32 µg/mL | 3.65 µg/mL | 0.55 µg/mL
Fc1cccc(C=CBOc2cccc3cccnc23)c1 [Compound 39, (3-Fluorophenyl)vinyl borinic acid quinolin-8-yl ester] | 122 µg/mL (≈ 440 µM) | 0.201 µg/mL (≈ 0.725 µM) | 1.41 µg/mL (≈ 5.09 µM) | 0.34 µg/mL (≈ 1.23 µM) | – | – | – | –
Fc1ccc(B(Oc2cccc3cccnc23)c2ccc(Cl)cc2)cc1 [Compound 15, (4-chlorophenyl)(4-fluorophenyl) borinic acid quinolin-8-yl ester] | 1.82 µg/mL (≈ 5.03 µM) | 0.28 µg/mL (≈ 0.774 µM) | 0.906 µg/mL (≈ 2.51 µM) | 0.5 µg/mL (≈ 1.38 µM) | – | – | – | –
Cc1ccc2c(Cl)cc(Cl)c(OB(c3ccc(Cl)cc3)c3ccc(Cl)cc3)c2n1 [Compound 80] | – | – | – | – | 1.71 µg/mL | 1.06 µg/mL | 1.315 µg/mL | 0.12 µg/mL
Fc1ccc(B(Oc2cccc3cccnc23)c2ccc(F)c(Cl)c2)cc1Cl [Compound 12, Bis(3-chloro-4-fluoro-phenyl)borinic acid quinolin-8-yl ester] | 1.5 µg/mL (≈ 3.62 µM) | 0.52 µg/mL (≈ 1.26 µM) | 5.6 µg/mL (≈ 13.5 µM) | 0.68 µg/mL (≈ 1.64 µM) | – | – | – | –
CN(C)Cc1ccc(B(Oc2cccc3cccnc23)c2cccc(C3=NC(C)(C)CO3)c2)cc1 [Compound 126] | – | – | – | – | 4.746 µg/mL | 0.595 µg/mL | 5.05 µg/mL | 0.45 µg/mL
Fc1ccc(B(Oc2cccc3cccnc23)c2cccc(Cl)c2)cc1 [Compound 14, (3-Chlorophenyl)(4-fluorophenyl)borinic acid quinolin-8-yl ester] | 1.9 µg/mL (≈ 5.25 µM) | 0.5 µg/mL (≈ 1.38 µM) | – | 0.37 µg/mL (≈ 1.02 µM) | 1.93 µg/mL | 0.28 µg/mL | – | 0.48 µg/mL
C=CB(Oc1cccc2cccnc12)c1cccnc1 [Compound 94] | – | – | – | – | – | 0.495 µg/mL | 2.8 µg/mL | 0.55 µg/mL
CN(C)Cc1ccc(B(Oc2cccc3cccnc23)c2cccc(C#N)c2)cc1.O=C(O)/C=C/C(=O)O [Compound 112] | – | – | – | – | – | 0.44 µg/mL | 4.2 µg/mL | 0.98 µg/mL
N#Cc1cccc(B(OC(=O)c2ncccc2O)c2cccnc2)c1 [Compound 133] | – | – | – | – | – | 0.86 µg/mL | 10.4 µg/mL | 2.2 µg/mL
C=CB(Oc1cccc2cccnc12)c1c(C)noc1C [Compound 118] | – | – | – | – | – | 0.265 µg/mL | 3.5 µg/mL | 0.44 µg/mL
CSc1cccc(B(Oc2cccc3cccnc23)c2cccc(Cl)c2)c1 [Compound 107] | – | – | – | – | – | 0.365 µg/mL | 4.1 µg/mL | 0.42 µg/mL
Cc1cccc(B(Oc2cccc3cccnc23)c2cccc(C)c2)c1 [Compound 86] | – | – | – | – | – | 0.35 µg/mL | 3 µg/mL | 0.59 µg/mL
N#Cc1ccc(B(Oc2cccc3cccnc23)c2cccc(Cl)c2)cc1 [Compound 26, (3-Chlorophenyl)(4-cyanophenyl)borinic acid quinolin-8-yl ester] | 1.4 µg/mL (≈ 3.8 µM) | 0.29 µg/mL (≈ 0.787 µM) | – | 0.41 µg/mL (≈ 1.11 µM) | 1.44 µg/mL | 0.21 µg/mL | – | 0.55 µg/mL
